Experimental data reported in PubChem BioAssay AID2132 (NMMLSC, 2009).
Peptide text beside a SMILES is read from it. * marks the point of attachment. Cbz = O=C(OCc1ccccc1)*

Test: inhibition of 26S proteasome fluorogenic peptide cleavage, counter-screen for 26S proteasome disassembly project, biochemical, fluorogenic peptides, secondary (AID 2132)
Details: yeast 26S proteasome, peptide cleavage rate with compound, at 100 µM, stronger effect = lower value

Row | cleavage rate (fluorescence units/min) (with Ac-RLR-amc) | cleavage rate (fluorescence units/min) (with Ac-nLPnLD-amc) | cleavage rate (fluorescence units/min) (with Suc-LLVY-amc) | Structure (SMILES)
1 | 0.32 | 0.2 | 0.52 | CC(=O)N1C(=O)C(=C2C=C(C)OC(C)=C2)c2ccccc21
2 | 0.41 | 0.11 | 0 | CC(C)C[C@@H](C=O)NC(=O)[C@H](CC(C)C)NC(=O)[C@H](CC(C)C)NC(=O)OCc1ccccc1 (Cbz-Leu-Leu-Leu-aldehyde)
